pKd: −log10 of the molar value.
What was measured:
16S rRNA = test: Fluorescence anisotropy competition binding (CRP displacement) to 16S rRNA; settings: competition with CRP probe, 20° C., pH 7.5; read-out: binding force (bond constant KD) against 16s rRNA
Experimental: (§1) The RNA of the present invention was prepared with sense DNA of 16S rRNA (sequence listing 1) and an antisense DNA of 16S rRNA (sequence listing 2); a sense DNA of RRE RNA (sequence listing 3) and an antisense DNA of RRE RNA (sequence listing 4); and a sense DNA of TS RNA (sequence listing 5) and an antisense DNA of TS RNA (sequence listing 6). […]
(§2) The paromomycin bonded with tetramethylrhodamine (hereinafter referred to as […]) is used as a luminescence fluorescent probe. The luminescence anisotropy is measured by establishing a thermostat of 20° C. at the Perkin-Elmer LS-50B luminescence spectroscope. The luminescence absorptance of CRP is 510 nm and its luminescence fluorescent is observed at 550 nm. […] The luminescence was measured at an elution buffer using 140 mM NaCl, 5 mM KCl, 1 mM MgCl2, and 20 mM HEPES pH 7.5. […]
(§3) A is the luminescence anisotropy value of CRP when RNA is present,
(§4) A0 is the luminescence anisotropy value of CRP when RNA is not present,
(§5) DA is the difference of luminescence anisotropy value when RNA is not present between various RNA concentrations, […]
(§6) If the newly prepared compound is added to the solution after inducing the bonding of the said RNA and CRP, CRP is separated from RNA by a competitive bonding reaction and the compound to be measured achieves a KD value by bonding with RNA. […]
(§7) [Aminoglycoside]0 is the initial concentration of aminoglycoside to be measured, […]

RRE RNA = test: Fluorescence anisotropy competition binding (CRP displacement) to RRE RNA; parameters: species or system HIV; settings: competition with CRP probe, 20° C., pH 7.5; read-out: binding force (bond constant KD) against RRE RNA
Experimental: as §1, §2, §3, §4, §5, §6, §7

TS RNA = test: Fluorescence anisotropy competition binding (CRP displacement) to TS RNA; settings: competition with CRP probe, 20° C., pH 7.5; read-out: binding force (bond constant KD) against TS RNA
Experimental: as §1, §2, §3, §4, §5, §6, §7

Measured: pKd

Neomycin [reference compound]
< 5.70: all assays above

Source: US7022839B2, “Heterodimeric conjugates of neomycin-chloramphenicol having an enhanced specificity against RNA targets and its preparation” (Korea Institute of Science and Technology, priority 2001, dated 2006)
